Test results from patent US6737383B1, “Herbicidal oxadiazolidines” (priority 1999, dated 2004).

Key:
crabgrass = test: Test B pre/postemergence crabgrass; format: in vivo, Digitaria sanguinalis; settings: for Crabgrass plant response rating: scale of 0 to 10 where 0 is no effect and 10 is complete control
Outline: (§1)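 Test chemicals in a non-phytotoxic solvent mixture with surfactant were sprayed preemergence onto planted seeds and postemergence onto plants 2 to 18 cm tall (1- to 4-leaf stage). After twelve to sixteen days in a greenhouse, injury was visually rated against untreated controls from 0 (no effect) to 10 (complete control).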

velvetleaf = test: Test B pre/postemergence velvetleaf; format: in vivo, Abutilon theophrasti; settings: for Velvetleaf plant response rating: scale of 0 to 10 where 0 is no effect and 10 is complete control
Outline: as §1

morningglory = test: Test B pre/postemergence morningglory; format: in vivo, Ipomoea hederacea; settings: for Morningglory plant response rating: scale of 0 to 10 where 0 is no effect and 10 is complete control
Outline: as §1

surinam grass = test: Test B pre/postemergence surinam grass; format: in vivo, Brachiaria decumbens; settings: for B. signalgrass plant response rating: scale of 0 to 10 where 0 is no effect and 10 is complete control
Outline: as §1

giant foxtail = test: Test B pre/postemergence giant foxtail; format: in vivo, Setaria faberii; settings: for Giant foxtail plant response rating: scale of 0 to 10 where 0 is no effect and 10 is complete control
Outline: as §1

blackgrass = test: Test B pre/postemergence blackgrass; format: in vivo, Alopecurus myosuroides; settings: for Blackgrass plant response rating: scale of 0 to 10 where 0 is no effect and 10 is complete control
Outline: as §1

bamyardgrass = test: Test B flood test barnyardgrass; format: in vivo, Echinochloa crus-galli
Outline: (§2)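 Read-out is a visual response score from 0 (no effect) to 10 (complete control), assigned by comparison with untreated controls. Treatment was applied at the 2-leaf stage, and plants stayed in the greenhouse for twelve to sixteen days before scoring.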

rice = test: Test B flood test rice; format: in vivo, Oryza sativa
Outline: as §2

bedstraw = test: Test B pre/postemergence bedstraw; format: in vivo, Galium aparine; settings: Postemergence
Outline: as §1

purple nutsedge = test: Test B pre/postemergence purple nutsedge; format: in vivo, Cyperus rotundus; settings: for Nutsedge plant response rating: scale of 0 to 10 where 0 is no effect and 10 is complete control
Outline: as §1

cocklebur = test: Test B pre/postemergence cocklebur; format: in vivo, Xanthium strumarium; settings: for Cocklebur plant response rating: scale of 0 to 10 where 0 is no effect and 10 is complete control
Outline: as §1

smallflower flatsedge = test: Test B flood test smallflower flatsedge; format: in vivo, Cyperus difformis
Outline: as §2

pigweed = test: Test B pre/postemergence pigweed; format: in vivo, Amaranthus retroflexus; settings: for Redroot pigweed plant response rating: scale of 0 to 10 where 0 is no effect and 10 is complete control
Outline: as §1

wild oat = test: Test B pre/postemergence wild oat; format: in vivo, Avena fatua; settings: for Wild oats plant response rating: scale of 0 to 10 where 0 is no effect and 10 is complete control
Outline: as §1

wheat = test: Test B pre/postemergence wheat; format: in vivo, Triticum aestivum; settings: for Wheat plant response rating: scale of 0 to 10 where 0 is no effect and 10 is complete control
Outline: as §1

soybean = test: Test B pre/postemergence soybean; format: in vivo, Glycine max; settings: for Soybean plant response rating: scale of 0 to 10 where 0 is no effect and 10 is complete control
Outline: as §1

[1] = Postemergence, Rate 125 g/ha, scale 0 to 10, 0 is no effect, 10 is complete control
[2] = Postemergence, Rate 250 g/ha, scale 0 to 10, 0 is no effect, 10 is complete control
[3] = Preemergence, Rate 62 g/ha, scale 0 to 10 (0 no effect, 10 complete control)
[4] = Rate 500 g/ha, Postemergence, scale 0 to 10, 0 no effect, 10 complete control
[5] = Rate 62 g/ha, flood test species, Pre-emergence, visual evaluation after twelve to sixteen days
[6] = Rate 125 g/ha, under heading Pre-emergence, flood test species, visual evaluation after twelve to sixteen days
[7] = Rate 250 g/ha, Pre-emergence, flood-test species, scale 0 to 10, 0 is no effect, 10 is complete control
[8] = Rate 500 g/ha, Pre-emergence, flood test species, scale 0 to 10 (0 no effect, 10 complete control)

`CC(C)N(C(=O)n1oc(=O)n(N2CCOCC2)c1=O)c1ccc(F)cc1F` [Compound 384] was tested, and the “Plant response rating, Crabgrass” value (crabgrass; [1]) was 7, the “Plant response rating, Crabgrass” value (crabgrass; [2]) was 8 and the “Plant response rating, Crabgrass” value (crabgrass; [3]) was 6. The “Crabgrass plant response rating (0 to 10 scale)” value (crabgrass; Preemergence, Rate 125 g/ha) was 6, the “Crabgrass plant response rating” value (crabgrass; Preemergence, Rate 250 g/ha) was 9 and the “Crabgrass plant response rating” value (crabgrass; Preemergence, Rate 500 g/ha) was 9. For the same compound, the “Crabgrass plant response rating” value (crabgrass; Rate 62 g/ha, Postemergence) was 1, the “Plant response rating, Crabgrass” value (crabgrass; [4]) was 8 and the “Plant response rating, Velvetleaf” value (velvetleaf; [1]) was 0. For the same compound, the “Plant response rating, Velvetleaf” value (velvetleaf; [2]) was 0, the “Plant response rating, Velvetleaf” value (velvetleaf; [3]) was 0 and the “Velvetleaf plant response rating (0 to 10 scale)” value (velvetleaf; Preemergence, Rate 125 g/ha) was 0. For the same compound, the “Velvetleaf plant response rating” value (velvetleaf; Preemergence, Rate 250 g/ha) was 1, the “Velvetleaf plant response rating” value (velvetleaf; Preemergence, Rate 500 g/ha) was 3 and the “Velvetleaf plant response rating” value (velvetleaf; Rate 62 g/ha, Postemergence) was 0. For the same compound, the “Plant response rating, Velvetleaf” value (velvetleaf; [4]) was 0, the “Plant response rating, Morningglory” value (morningglory; [1]) was 0 and the “Plant response rating, Morningglory” value (morningglory; [2]) was 0. The “Plant response rating, Morningglory” value (morningglory; [3]) was 0, the “Morningglory plant response rating (0 to 10 scale)” value (morningglory; Preemergence, Rate 125 g/ha) was 0 and the “Morningglory plant response rating” value (morningglory; Preemergence, Rate 250 g/ha) was 0. For the same compound, the “Morningglory plant response rating” value (morningglory; Preemergence, Rate 500 g/ha) was 2, the “Morningglory plant response rating” value (morningglory; Rate 62 g/ha, Postemergence) was 0 and the “Plant response rating, Morningglory” value (morningglory; [4]) was 0. For the same compound, the “Plant response rating, B. signalgrass” value (surinam grass; [1]) was 3, the “Plant response rating, B. signalgrass” value (surinam grass; [2]) was 6 and the “Plant response rating, B. signalgrass” value (surinam grass; [3]) was 0. The “B. signalgrass plant response rating (0 to 10 scale, 0 is no effect, 10 is complete control)” value (surinam grass; Preemergence, Rate 125 g/ha) was 0, the “B. signalgrass plant response rating” value (surinam grass; Preemergence, Rate 250 g/ha) was 3 and the “B. signalgrass plant response rating” value (surinam grass; Preemergence, Rate 500 g/ha) was 7. The “B. signalgrass plant response rating” value (surinam grass; Rate 62 g/ha, Postemergence) was 0, the “Plant response rating, B. signalgrass” value (surinam grass; [4]) was 7 and the “Plant response rating, Giant foxtail” value (giant foxtail; [1]) was 8. For the same compound, the “Plant response rating, Giant foxtail” value (giant foxtail; [2]) was 9, the “Plant response rating, Giant foxtail” value (giant foxtail; [3]) was 9 and the “Giant foxtail plant response rating (0 to 10 scale)” value (giant foxtail; Preemergence, Rate 125 g/ha) was 10. For the same compound, the “Giant foxtail plant response rating” value (giant foxtail; Preemergence, Rate 250 g/ha) was 10, the “Giant foxtail plant response rating” value (giant foxtail; Preemergence, Rate 500 g/ha) was 10 and the “Giant foxtail plant response rating” value (giant foxtail; Rate 62 g/ha, Postemergence) was 4. For the same compound, the “Plant response rating, Giant foxtail” value (giant foxtail; [4]) was 9, the “Plant response rating, Blackgrass” value (blackgrass; [1]) was 4 and the “Plant response rating, Blackgrass” value (blackgrass; [2]) was 9. The “Plant response rating, Blackgrass” value (blackgrass; [3]) was 0, the “Blackgrass plant response rating (0 to 10 scale)” value (blackgrass; Preemergence, Rate 125 g/ha) was 0 and the “Blackgrass plant response rating” value (blackgrass; Preemergence, Rate 250 g/ha) was 3. The “Blackgrass plant response rating” value (blackgrass; Preemergence, Rate 500 g/ha) was 7, the “Blackgrass plant response rating” value (blackgrass; Rate 62 g/ha, Postemergence) was 3 and the “Plant response rating, Barnyardgrass (0 to 10 scale, 0 is no effect, 10 is complete control)” value (bamyardgrass; [5]) was 0. For the same compound, the “Barnyardgrass plant response rating (0 to 10 scale, 0 is no effect, 10 is complete control)” value (bamyardgrass; [6]) was 0, the “Barnyardgrass plant response rating” value (bamyardgrass; [7]) was 0 and the “Barnyardgrass plant response rating” value (bamyardgrass; [8]) was 0. For the same compound, the “Plant response rating, Rice (0 to 10 scale, 0 is no effect, 10 is complete control)” value (rice; [5]) was 0, the “Rice plant response rating (0 to 10 scale, 0 is no effect, 10 is complete control)” value (rice; [6]) was 0 and the “Rice plant response rating” value (rice; [7]) was 0. The “Rice plant response rating” value (rice; [8]) was 0, the “Plant response rating, Bedstraw” value (bedstraw; Rate 125 g/ha, scale 0 to 10, 0 is no effect, 10 is complete control) was 0 and the “Plant response rating, Bedstraw” value (bedstraw; Rate 250 g/ha, scale 0 to 10, 0 is no effect, 10 is complete control) was 0. The “Bedstraw plant response rating” value (bedstraw; Rate 62 g/ha, scale of 0 to 10 where 0 is no effect and 10 is complete control) was 0, the “Plant response rating, Bedstraw” value (bedstraw; Rate 500 g/ha, scale 0 to 10, 0 no effect, 10 complete control) was 0 and the “Plant response rating, Nutsedge” value (purple nutsedge; [1]) was 0. The “Plant response rating, Nutsedge” value (purple nutsedge; [2]) was 0, the “Plant response rating, Nutsedge” value (purple nutsedge; [3]) was 0 and the “Nutsedge plant response rating (0 to 10 scale)” value (purple nutsedge; Preemergence, Rate 125 g/ha) was 0. The “Nutsedge plant response rating” value (purple nutsedge; Preemergence, Rate 250 g/ha) was 0, the “Nutsedge plant response rating” value (purple nutsedge; Preemergence, Rate 500 g/ha) was 0 and the “Nutsedge plant response rating” value (purple nutsedge; Rate 62 g/ha, Postemergence) was 0. For the same compound, the “Plant response rating, Nutsedge” value (purple nutsedge; [4]) was 0, the “Plant response rating, Cocklebur” value (cocklebur; [1]) was 0 and the “Plant response rating, Cocklebur” value (cocklebur; [2]) was 0. For the same compound, the “Plant response rating, Cocklebur” value (cocklebur; [3]) was 0, the “Cocklebur plant response rating (0 to 10 scale)” value (cocklebur; Preemergence, Rate 125 g/ha) was 0 and the “Cocklebur plant response rating” value (cocklebur; Preemergence, Rate 250 g/ha) was 0. For the same compound, the “Cocklebur plant response rating” value (cocklebur; Preemergence, Rate 500 g/ha) was 0, the “Cocklebur plant response rating” value (cocklebur; Rate 62 g/ha, Postemergence) was 0 and the “Plant response rating, Cocklebur” value (cocklebur; [4]) was 0. For the same compound, the “Plant response rating, S. Flatsedge (0 to 10 scale, 0 is no effect, 10 is complete control)” value (smallflower flatsedge; [5]) was 0, the “S. Flatsedge plant response rating (0 to 10 scale, 0 is no effect, 10 is complete control)” value (smallflower flatsedge; [6]) was 0 and the “S. Flatsedge plant response rating” value (smallflower flatsedge; [7]) was 0. The “S. Flatsedge plant response rating” value (smallflower flatsedge; [8]) was 0, the “Plant response rating, Redroot pigweed” value (pigweed; [1]) was 0 and the “Plant response rating, Redroot pigweed” value (pigweed; [2]) was 0. For the same compound, the “Plant response rating, Redroot pigweed” value (pigweed; [3]) was 0, the “Redroot pigweed plant response rating (0 to 10 scale)” value (pigweed; Preemergence, Rate 125 g/ha) was 0 and the “Redroot pigweed plant response rating” value (pigweed; Preemergence, Rate 250 g/ha) was 0. The “Redroot pigweed plant response rating” value (pigweed; Preemergence, Rate 500 g/ha) was 0, the “Redroot pigweed plant response rating” value (pigweed; Rate 62 g/ha, Postemergence) was 0 and the “Plant response rating, Redroot pigweed” value (pigweed; [4]) was 0. For the same compound, the “Plant response rating, Wild oats” value (wild oat; [1]) was 0, the “Plant response rating, Wild oats” value (wild oat; [2]) was 0 and the “Plant response rating, Wild oats” value (wild oat; [3]) was 0. For the same compound, the “Wild oats plant response rating (0 to 10 scale)” value (wild oat; Preemergence, Rate 125 g/ha) was 0, the “Wild oats plant response rating” value (wild oat; Preemergence, Rate 250 g/ha) was 6 and the “Wild oats plant response rating” value (wild oat; Preemergence, Rate 500 g/ha) was 6. The “Wild oats plant response rating” value (wild oat; Rate 62 g/ha, Postemergence) was 0, the “Plant response rating, Wild oats” value (wild oat; [4]) was 4 and the “Plant response rating, Wheat” value (wheat; [1]) was 0. The “Plant response rating, Wheat” value (wheat; [2]) was 2, the “Plant response rating, Wheat” value (wheat; [3]) was 0 and the “Wheat plant response rating (0 to 10 scale)” value (wheat; Preemergence, Rate 125 g/ha) was 0. For the same compound, the “Wheat plant response rating” value (wheat; Preemergence, Rate 250 g/ha) was 2, the “Wheat plant response rating” value (wheat; Preemergence, Rate 500 g/ha) was 3 and the “Wheat plant response rating” value (wheat; Rate 62 g/ha, Postemergence) was 0. For the same compound, the “Plant response rating, Wheat” value (wheat; [4]) was 3, the “Plant response rating, Soybean” value (soybean; [1]) was 2 and the “Plant response rating, Soybean” value (soybean; [2]) was 3. For the same compound, the “Plant response rating, Soybean” value (soybean; [3]) was 0, the “Soybean plant response rating (0 to 10 scale)” value (soybean; Preemergence, Rate 125 g/ha) was 0 and the “Soybean plant response rating” value (soybean; Preemergence, Rate 250 g/ha) was 0. The “Soybean plant response rating” value (soybean; Preemergence, Rate 500 g/ha) was 3, the “Soybean plant response rating” value (soybean; Rate 62 g/ha, Postemergence) was 1 and the “Plant response rating, Soybean” value (soybean; [4]) was 3.
